According to PubChem BioAssay (NCI):
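Values below derive from 48-hour exposures of cells grown in 96-well plates, with endpoints linearly interpolated between the two concentrations bracketing the appropriate inhibition level. Here, GI50 denotes the concentration required for 50% inhibition of growth. TGI is the concentration that stops growth completely.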

Experiments:
Assay in all cases: growth of human tumour cells (NCI), 48 h
OVCAR-3 ovarian = tested on: OVCAR-3 ovarian
MDA-MB-435 = tested on: MDA-MB-435
A498 renal = tested on: A498 renal
HCC-2998 colon = tested on: HCC-2998 colon
SK-MEL-28 melanoma = tested on: SK-MEL-28 melanoma
HCT-15 colon = tested on: HCT-15 colon
M14 melanoma = tested on: M14 melanoma
SK-MEL-5 melanoma = tested on: SK-MEL-5 melanoma
SN12C renal = tested on: SN12C renal
SW-620 colon = tested on: SW-620 colon
OVCAR-8 ovarian = tested on: OVCAR-8 ovarian
OVCAR-5 ovarian = tested on: OVCAR-5 ovarian
786-0 renal = tested on: 786-0 renal
MCF7 breast = tested on: MCF7 breast
U251 CNS = tested on: U251 CNS
RPMI-8226 leukemia = tested on: RPMI-8226 leukemia
ACHN renal = tested on: ACHN renal
MOLT-4 leukemia = tested on: MOLT-4 leukemia
HOP-62 NSCLC = tested on: HOP-62 NSCLC
KM12 colon = tested on: KM12 colon
NCI-H23 lung = tested on: NCI-H23 lung
SNB-75 CNS = tested on: SNB-75 CNS
MDA-MB-231 breast = tested on: MDA-MB-231 breast
NCI-H226 lung = tested on: NCI-H226 lung
NCI-H522 lung = tested on: NCI-H522 lung
PC-3 prostate = tested on: PC-3 prostate
T-47D breast = tested on: T-47D breast
BT-549 breast = tested on: BT-549 breast
COLO 205 colon = tested on: COLO 205 colon
HCT-116 colon = tested on: HCT-116 colon
SF-268 CNS = tested on: SF-268 CNS
SK-OV-3 ovarian = tested on: SK-OV-3 ovarian
CAKI-1 renal = tested on: CAKI-1 renal
HS 578T breast = tested on: HS 578T breast
NCI/ADR-RES ovarian = tested on: NCI/ADR-RES ovarian
OVCAR-4 ovarian = tested on: OVCAR-4 ovarian
SR leukemia = tested on: SR leukemia
NCI-H460 lung = tested on: NCI-H460 lung
DU-145 prostate = tested on: DU-145 prostate
UACC-257 melanoma = tested on: UACC-257 melanoma
EKVX NSCLC = tested on: EKVX NSCLC
K-562 leukemia = tested on: K-562 leukemia
SNB-19 CNS = tested on: SNB-19 CNS
LOX IMVI melanoma = tested on: LOX IMVI melanoma
SF-539 CNS = tested on: SF-539 CNS
HT29 colon = tested on: HT29 colon
TK-10 renal = tested on: TK-10 renal
RXF 393 renal = tested on: RXF 393 renal
HL-60(TB) leukemia = tested on: HL-60(TB) leukemia
IGROV1 ovarian = tested on: IGROV1 ovarian
UACC-62 melanoma = tested on: UACC-62 melanoma
A549 NSCLC = tested on: A549 NSCLC
SK-MEL-2 melanoma = tested on: SK-MEL-2 melanoma
SF-295 CNS = tested on: SF-295 CNS
UO-31 renal = tested on: UO-31 renal
MALME-3M melanoma = tested on: MALME-3M melanoma
CCRF-CEM leukemia = tested on: CCRF-CEM leukemia

With `NC(=O)Nc1ccc2ncnc(Nc3ccc(Cl)cc3)c2c1` the GI50 (OVCAR-3 ovarian) was 10.4 µM, the TGI (OVCAR-3 ovarian) was > 83.4 µM and the GI50 (MDA-MB-435) was 17.8 µM. It also gave a TGI (MDA-MB-435) of 44.6 µM, a GI50 (A498 renal) of 0.896 µM and a TGI (A498 renal) of 16.2 µM. For the same compound, the GI50 (HCC-2998 colon) was 33.5 µM, the TGI (HCC-2998 colon) was > 100 µM and the GI50 (SK-MEL-28 melanoma) was 30.2 µM. For the same compound, the TGI (SK-MEL-28 melanoma) was > 100 µM, the GI50 (HCT-15 colon) was 20.1 µM and the TGI (HCT-15 colon) was > 100 µM. The GI50 (M14 melanoma) was 24.4 µM, the TGI (M14 melanoma) was 68.6 µM and the GI50 (SK-MEL-5 melanoma) was 13.6 µM. For the same compound, the TGI (SK-MEL-5 melanoma) was 30.8 µM, the GI50 (SN12C renal) was 11.4 µM and the TGI (SN12C renal) was > 70.7 µM. The GI50 (SW-620 colon) was 42.8 µM, the TGI (SW-620 colon) was > 100 µM and the GI50 (OVCAR-8 ovarian) was 20.4 µM. The TGI (OVCAR-8 ovarian) was > 96.6 µM, the GI50 (OVCAR-5 ovarian) was 15.8 µM and the TGI (OVCAR-5 ovarian) was > 95 µM. For the same compound, the GI50 (786-0 renal) was 19.3 µM, the TGI (786-0 renal) was 91.7 µM and the GI50 (MCF7 breast) was 26.9 µM. The TGI (MCF7 breast) was > 100 µM, the GI50 (U251 CNS) was 25.4 µM and the TGI (U251 CNS) was > 100 µM. The GI50 (RPMI-8226 leukemia) was 24.3 µM, the TGI (RPMI-8226 leukemia) was > 88.8 µM and the GI50 (ACHN renal) was 1.49 µM. For the same compound, the TGI (ACHN renal) was 45.3 µM, the GI50 (MOLT-4 leukemia) was 21.4 µM and the TGI (MOLT-4 leukemia) was 84.7 µM. The GI50 (HOP-62 NSCLC) was 26.7 µM, the TGI (HOP-62 NSCLC) was > 91.9 µM and the GI50 (KM12 colon) was 33.4 µM. The TGI (KM12 colon) was > 100 µM, the GI50 (NCI-H23 lung) was 21.6 µM and the TGI (NCI-H23 lung) was 69 µM. For the same compound, the GI50 (SNB-75 CNS) was 8 µM, the TGI (SNB-75 CNS) was 61 µM and the GI50 (MDA-MB-231 breast) was 13.7 µM. The TGI (MDA-MB-231 breast) was > 61.4 µM, the GI50 (NCI-H226 lung) was 22.9 µM and the TGI (NCI-H226 lung) was > 100 µM. The GI50 (NCI-H522 lung) was 6.08 µM, the TGI (NCI-H522 lung) was 36 µM and the GI50 (PC-3 prostate) was 19.4 µM. The TGI (PC-3 prostate) was > 96.2 µM, the GI50 (T-47D breast) was 10.2 µM and the TGI (T-47D breast) was > 85.1 µM. It also gave a GI50 (BT-549 breast) of 18.9 µM, a TGI (BT-549 breast) of 67.4 µM and a GI50 (COLO 205 colon) of 30.6 µM. The TGI (COLO 205 colon) was > 100 µM, the GI50 (HCT-116 colon) was 24.9 µM and the TGI (HCT-116 colon) was 98.2 µM. For the same compound, the GI50 (SF-268 CNS) was 21.7 µM, the TGI (SF-268 CNS) was > 100 µM and the GI50 (SK-OV-3 ovarian) was 4.5 µM. For the same compound, the TGI (SK-OV-3 ovarian) was 34.1 µM, the GI50 (CAKI-1 renal) was 1.6 µM and the TGI (CAKI-1 renal) was 42.2 µM. The GI50 (HS 578T breast) was 17 µM, the TGI (HS 578T breast) was 66.4 µM and the GI50 (NCI/ADR-RES ovarian) was 18.3 µM. The TGI (NCI/ADR-RES ovarian) was > 81.5 µM, the GI50 (OVCAR-4 ovarian) was 11.8 µM and the TGI (OVCAR-4 ovarian) was > 100 µM. For the same compound, the GI50 (SR leukemia) was 21.3 µM, the TGI (SR leukemia) was 75.8 µM and the GI50 (NCI-H460 lung) was 24.5 µM. For the same compound, the TGI (NCI-H460 lung) was > 100 µM, the GI50 (DU-145 prostate) was 4.21 µM and the TGI (DU-145 prostate) was > 100 µM. It also gave a GI50 (UACC-257 melanoma) of 22 µM, a TGI (UACC-257 melanoma) of 66 µM and a GI50 (EKVX NSCLC) of 0.369 µM. For the same compound, the TGI (EKVX NSCLC) was 11.9 µM, the GI50 (K-562 leukemia) was 28.9 µM and the TGI (K-562 leukemia) was > 100 µM. The GI50 (SNB-19 CNS) was 14.1 µM, the TGI (SNB-19 CNS) was > 100 µM and the GI50 (LOX IMVI melanoma) was 18.1 µM. The TGI (LOX IMVI melanoma) was 57.7 µM, the GI50 (SF-539 CNS) was 30.7 µM and the TGI (SF-539 CNS) was > 100 µM. For the same compound, the GI50 (HT29 colon) was 25.3 µM, the TGI (HT29 colon) was > 100 µM and the GI50 (TK-10 renal) was 1.72 µM. It also gave a TGI (TK-10 renal) of 23.4 µM, a GI50 (RXF 393 renal) of 17 µM and a TGI (RXF 393 renal) of 83.6 µM. It also gave a GI50 (HL-60(TB) leukemia) of 25.9 µM, a TGI (HL-60(TB) leukemia) of 64.4 µM and a GI50 (IGROV1 ovarian) of 9.06 µM. It also gave a TGI (IGROV1 ovarian) of 34.3 µM, a GI50 (UACC-62 melanoma) of 14.3 µM and a TGI (UACC-62 melanoma) of 37.3 µM. The GI50 (A549 NSCLC) was 18.4 µM, the TGI (A549 NSCLC) was > 100 µM and the GI50 (SK-MEL-2 melanoma) was 18.5 µM. For the same compound, the TGI (SK-MEL-2 melanoma) was 46.7 µM, the GI50 (SF-295 CNS) was 19.2 µM and the TGI (SF-295 CNS) was > 67.4 µM. For the same compound, the GI50 (UO-31 renal) was 6.96 µM, the TGI (UO-31 renal) was > 65.6 µM and the GI50 (MALME-3M melanoma) was 28.2 µM. For the same compound, the TGI (MALME-3M melanoma) was > 77.9 µM, the GI50 (CCRF-CEM leukemia) was 20.3 µM and the TGI (CCRF-CEM leukemia) was > 100 µM.
